# Data: paper PMC10065799, “High-throughput profiling of sequence recognition by tyrosine kinases and SH2 domains using bacterial peptide display” (eLife, 2023)
# Columns and labels:
# c-Abl kinase domain [1] = target: T1, c-Abl kinase domain (Mus musculus, UniProt P00520); assay: ADP-Quest continuous fluorimetric kinase assay (Michaelis-Menten parameters and initial rates); format: biochemical; details: c-Abl kinase domain 10 nM, 100 μM ATP, 37 °C, three to five replicates, error = standard error of global Michaelis-Menten fit
# T1 sequence (P00520 242-493 limits assumed): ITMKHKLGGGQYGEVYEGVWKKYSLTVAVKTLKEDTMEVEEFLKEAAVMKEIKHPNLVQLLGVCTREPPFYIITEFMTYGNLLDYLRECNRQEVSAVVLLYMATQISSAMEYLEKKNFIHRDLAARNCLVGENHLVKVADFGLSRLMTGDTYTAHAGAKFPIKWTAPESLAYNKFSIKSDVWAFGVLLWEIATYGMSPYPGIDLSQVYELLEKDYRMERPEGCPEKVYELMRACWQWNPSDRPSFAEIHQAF
# Source text: (§1) A fluorescence-based assay from Eurofins (ADP Quest) was used to measure the Michaelis-Menten kinetic parameters for phosphorylation of the consensus peptides by purified tyrosine kinase domains. In this assay, ADP production as a result of kinase activity is coupled to the production of resorufin, a fluorophore that emits signal at 590 nm. For all experiments, the assay reactions were set up as described in the provided assay kit protocol, in a 384 well plate format. The peptide solutions were serially diluted in 100 mM Tris, pH 8.0, and the kinases were diluted to 50 nM in buffer (10 mM HEPES, 100 mM NaCl, 1 mM TCEP, 5 mM MgCl2, 10% (v/v) glycerol). The final reaction mixtures contained 10 nM of kinase with 100 μM of ATP. Reactions were initiated with the addition of 1 mM ATP into a 50 μL reaction mixture for a final concentration of 100 μM ATP. Phosphorylation reaction progress was monitored by measuring fluorescence at excitation 530 nm and emission 590 nm every 2 min at 37 °C on a plate reader (BioTek Synergy Neo 2). The fluorescence units (RFU) were converted to μM ADP by comparison to a standard curve, and the initial rates were extracted from the linear regime of the reaction progress curves. Initial rates were also measured for samples containing each kinase but lacking a peptide substrate, to account for background ATP hydrolysis. This background rate was subtracted from the rates measured in the presence of peptide. The subtracted rates were plotted as a function of substrate concentration and fit to the Michaelis-Menten equation to extract kcat and KM values.
# c-Src kinase domain [2] = target: T2, c-Src kinase domain (Homo sapiens, UniProt P12931); assay: as above; format: biochemical; details: c-Src kinase domain 10 nM, 100 μM ATP, 37 °C, three to five replicates, error = standard error of global Michaelis-Menten fit
# Source text: as §1
# EPHB2 kinase domain [3] = assay: ADP-Quest continuous fluorimetric kinase assay (initial rates of consensus peptides); format: biochemical, human; details: peptide 100 μM, kinase 10–50 nM; Figure 2C
# Source text: as §1, with “Reactions were initiated with the addition of 1 mM ATP into a 50 μL reaction mixture for a final concentration of 100 μM ATP.” left out, “The subtracted rates were plotted as a function of substrate concentration and fit to the Michaelis-Menten equation to extract kcat and KM values.” left out
# c-Src kinase domain [4] = target: T2, c-Src kinase domain; assay: RP-HPLC assay to measure peptide phosphorylation kinetics; format: biochemical; details: purified peptide substrate
# Fes = assay: pTyr-Var library bacterial peptide display kinase screen (enrichment scores); format: biochemical
# FGFR3 kinase domain = assay: as above; format: biochemical, human
# Grb2 SH2 domain = assay: pTyr-Var library SH2 domain screen with SH2-dynabeads (enrichment scores)
# SHP2 C-SH2 domain = assay: as above
# FGFR1 kinase domain = assay: pTyr-Var library bacterial peptide display kinase screen (enrichment scores); format: biochemical, human
# AncSZ kinase domain = assay: as above; format: biochemical;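 for AncSZ hit?: Hit requires p below 0.05 and at least twofold variant vs reference change plus filters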
# [5] = tested on: 4G10 Platinum pan-phosphotyrosine antibody; assay: Phosphorylated pTyr-Var library selection with biotinylated pan-phosphotyrosine antibody; format: binding, mouse; details: enrichment score, sheet SH2-vs-peptide
# MERTK kinase domain = assay: pTyr-Var library bacterial peptide display kinase screen (enrichment scores); format: biochemical, human
# c-Abl kinase domain [6] = target: T1, c-Abl kinase domain; assay: as above; format: biochemical
# Fyn kinase domain = assay: as above; format: biochemical, human;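 for Fyn hit?: Hit requires p below 0.05 and at least twofold variant vs reference change plus filters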
# c-Src kinase domain [7] = target: T2, c-Src kinase domain; assay: as above; format: biochemical
# EPHB2 kinase domain [8] = assay: as above; format: biochemical, human
# Hck kinase domain = assay: as above; format: biochemical, human
# Jak2 = assay: as above; format: biochemical, human
# Fer kinase domain = assay: as above; format: biochemical, mouse;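 for screen: log2 fold change in enrichment of variant over reference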
# EPHB1 kinase domain = assay: as above; format: biochemical, human;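 for screen: log2 fold change in enrichment of variant over reference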
# c-Src SH2 domain = c-Src SH2 domain (Homo sapiens, UniProt P12931); assay: pTyr-Var library SH2 domain screen with SH2-dynabeads (enrichment scores); details: sheet c-Src
# [9] = variant versus reference peptide
# [10] = mean of log2(variant) minus mean of log2(reference)
# [11] = mean of log2 enrichment of variant peptide, n = 5
# [12] = pTyr-Var library, variant peptide enrichment, mean of n = 5
# [13] = pTyr-Var library, enrichment score, replicate 1
# [14] = pTyr-Var library, enrichment score, replicate 3
# [15] = pTyr-Var library, enrichment score, replicate 4
# [16] = variant versus reference peptide, significant hit TRUE/FALSE
# [17] = mean of log2 enrichment of variant peptide, n = 4
# [18] = pTyr-Var library, variant peptide enrichment, mean of n = 4
# [19] = mean of log2 of enrichment over R1-R4
# 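Throughout, for c-Abl hit?: Hit requires p below 0.05 and at least twofold variant vs reference change plus filters.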
# 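Throughout, for c-Src hit?: Hit requires p below 0.05 and at least twofold variant vs reference change plus filters.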
# 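Throughout, for screen: log2 fold change in enrichment of variant over reference.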
substance,measurement,setting,value
"Ac-GPDEPIYAVPPIKKKG-NH2 [Abl Consensus, c-Abl consensus substrate peptide from X5-Y-X5 screen]",Km,c-Abl kinase domain [1],6 ± 2 µM
same,kcat,c-Abl kinase domain [1],3.0±0.2 s^–1
same,Km,c-Src kinase domain [2],159 ± 31 µM
same,kcat,c-Src kinase domain [2],2.0±0.2 s^–1
same,phosphorylation of consensus peptide by EPHB2 (initial rate relative to cognate consensus),EPHB2 kinase domain [3],efficiently phosphorylated
Ac-VASSLYDILAR-NH2 [GLB1_Y294],Phosphorylation Rate,c-Src kinase domain [4],0.892 s⁻¹
LHVGFYESDVM [A2M_Y708_R704H],Fes mean of log2(enrichment),Fes; mean of log2 of enrichment over R1-R6,0.6236
same,Fes difference (mean log2 variant - mean log2 reference),Fes; [9],-0.8632
same,difference,FGFR3 kinase domain; [10],-1.255
same,mean of log2(variant),FGFR3 kinase domain; [11],0.01497
same,var. mean,FGFR3 kinase domain; [12],1.21
same,difference,"Grb2 SH2 domain; Grb2 SH2, mean of log2(variant) minus mean of log2(reference)",0.0213
same,mean of log2(variant),"Grb2 SH2 domain; Grb2 SH2, mean of log2 enrichment of variant, R1-R3",-0.08185
same,hit?,"Grb2 SH2 domain; Grb2 SH2, variant versus reference significant hit call",FALSE
same,var. mean,"Grb2 SH2 domain; variant peptide enrichment score, Grb2 SH2, mean of R1-R3",0.9505
same,difference,"SHP2 C-SH2 domain; SHP2-C SH2, mean of log2(variant) minus mean of log2(reference)",-0.5777
same,mean of log2(variant),"SHP2 C-SH2 domain; SHP2-C SH2, mean of log2 enrichment of variant, R1-R3",-0.5659
same,hit?,"SHP2 C-SH2 domain; SHP2-C SH2, variant versus reference significant hit call",FALSE
same,var. mean,"SHP2 C-SH2 domain; variant peptide enrichment score, SHP2-C SH2, mean of R1-R3",0.7213
same,difference,FGFR1 kinase domain; [10],-0.559
same,mean of log2(variant),FGFR1 kinase domain; [11],-0.3446
same,var. mean,FGFR1 kinase domain; [12],0.8886
same,AncSZ mean of log2(enrichment),AncSZ kinase domain; mean of log2 of enrichment over R1-R5,0.1983
same,AncSZ enrich. R1,AncSZ kinase domain; [13],0.795
same,AncSZ enrich. R3,AncSZ kinase domain; [14],1.048
same,AncSZ enrich. R4,AncSZ kinase domain; [15],1.095
same,AncSZ enrich. R5,"AncSZ kinase domain; pTyr-Var library, enrichment score, replicate 5",1.306
same,AncSZ difference (mean log2 variant - mean log2 reference),AncSZ kinase domain; [9],-1.317
same,AncSZ hit?,AncSZ kinase domain; [16],FALSE
same,4G10 (mean),[5],1.221
same,difference,MERTK kinase domain; [10],-1.201
same,mean of log2(variant),MERTK kinase domain; [17],0.1586
same,var. mean,MERTK kinase domain; [18],1.154
same,Screen,"c-Abl kinase domain [6]; fig5-data2, sheet ""Abl"", Screen for the variant/reference peptide pair, pTyr-Var library",-1.318
same,c-Abl mean of log2(enrichment),c-Abl kinase domain [6]; [19],-0.4279
same,c-Abl enrich. R1,c-Abl kinase domain [6]; [13],0.51
same,c-Abl enrich. R3,c-Abl kinase domain [6]; [14],0.9195
same,c-Abl enrich. R4,c-Abl kinase domain [6]; [15],0.7727
same,c-Abl hit?,c-Abl kinase domain [6]; [16],FALSE
same,Fyn mean of log2(enrichment),Fyn kinase domain; [19],-0.6247
same,Fyn enrich. R1,Fyn kinase domain; [13],1.119
same,Fyn enrich. R3,Fyn kinase domain; [14],0.683
same,Fyn enrich. R4,Fyn kinase domain; [15],0.4956
same,Fyn difference (mean log2 variant - mean log2 reference),Fyn kinase domain; [9],-0.4761
same,Fyn hit?,Fyn kinase domain; [16],FALSE
same,c-Src mean of log2(enrichment),c-Src kinase domain [7]; [19],-0.6428
same,c-Src enrich. R1,c-Src kinase domain [7]; [13],0.8102
same,c-Src enrich. R3,c-Src kinase domain [7]; [14],0.4328
same,c-Src enrich. R4,c-Src kinase domain [7]; [15],0.9633
same,c-Src difference (mean log2 variant - mean log2 reference),c-Src kinase domain [7]; [9],-1.034
same,c-Src hit?,c-Src kinase domain [7]; [16],FALSE
same,difference,EPHB2 kinase domain [8]; [10],0.5535
same,mean of log2(variant),EPHB2 kinase domain [8]; [17],0.1669
same,var. mean,EPHB2 kinase domain [8]; [18],1.142
same,Hck enrich. R1,Hck kinase domain; [13],0.9181
same,Hck enrich. R3,Hck kinase domain; [14],0.8034
same,Hck enrich. R4,Hck kinase domain; [15],0.2649
same,Hck hit?,Hck kinase domain; [16],FALSE
same,Jak2 mean of log2(enrichment),Jak2; mean of log2 of enrichment over R1-R3,0.3892
same,Jak2 enrich. R1,Jak2; [13],1.336
same,Jak2 enrich. R3,Jak2; [14],1.016
same,Jak2 difference (mean log2 variant - mean log2 reference),Jak2; [9],-0.5933
same,Jak2 hit?,Jak2; [16],FALSE
same,Fer mean of log2(enrichment),Fer kinase domain; [19],0.8907
same,Fer enrich. R1,Fer kinase domain; [13],2.223
same,Fer enrich. R3,Fer kinase domain; [14],2.063
same,Fer enrich. R4,Fer kinase domain; [15],1.22
same,Screen,"Fer kinase domain; sheet ""Fer"", value of the variant peptide against its reference peptide in the pTyr-Var library screen with Fer",0.2498
same,Fer difference (mean log2 variant - mean log2 reference),Fer kinase domain; [9],0.2498
same,Fer hit?,Fer kinase domain; [16],FALSE
same,difference,EPHB1 kinase domain; [10],-0.4797
same,mean of log2(variant),EPHB1 kinase domain; [17],0.4103
same,var. mean,EPHB1 kinase domain; [18],1.406
same,Screen,"EPHB1 kinase domain; sheet EPHB1, effect of the variant peptide relative to its reference peptide in the pTyr-Var library screen (enrichment scores)",-0.4797
same,difference,c-Src SH2 domain; [10],0.05278
same,mean of log2(variant),"c-Src SH2 domain; mean of log2 enrichment of variant peptide, R1-R3",2.054
same,var. mean,"c-Src SH2 domain; variant peptide, mean of R1-R3",4.231
